Laboratory results as given in PubChem BioAssay AID1324 (NMMLSC, 2008).
The source made the active and inactive calls. How the calls were made is not given here.

The compounds below were run against glutathione S-transferase (GST-GSH binding) (assay: GST–glutathione interaction disruption – biochemical, multiplex beads, flow cytometry, HPSMTB buffer, profiling panel (AID 1324;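 further: glutathione beads loaded with GST-green fluorescent protein and no fluorescent Bim peptide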)). Conditions: multiplex bead flow cytometry, MCF.
For `O=C(NCCO)c1ccc2nc(-c3ccco3)c(-c3ccco3)nc2c1`, the EC50 was 9.03 µM. `Cc1nc2ncccn2c1-c1csc(Nc2ccc(O)cc2)n1` gave an EC50 of 0.69 µM. For `COc1ccc(OC)c(-n2c(=O)c3ccccc3c3ccccc3c2=O)c1`, the EC50 was “inactive”. `COc1cccc(/C=N/Nc2nn3cnnc3c3ccccc23)c1` was tested, and the EC50 was 7.28 µM. `c1ccc(Nc2cccc(Nc3ccccc3)n2)cc1` was tested, and the EC50 was “inactive”. In the case of `COc1cc2[nH]c(=S)nc(NCCc3ccc(S(N)(=O)=O)cc3)c2cc1OC`, the EC50 is reported as 3.63 µM.

Same assay, conditions: multiplex bead flow cytometry, MCF, active compounds read high, concentration not given here
`CN(C)c1ccc(/C=C2/SC(=O)N(CCN=C3NS(=O)(=O)c4ccccc43)C2=O)cc1` was tested, and the percent span inhibition was “inactive”. With `CCN1CCN(c2ccc(NC(=O)c3cccc4ncccc34)cc2)CC1` the percent span inhibition was “inactive”. With `Cn1c(N)c(C(=O)COC(=O)c2cncc(Br)c2)c(=O)n(C)c1=O` the percent span inhibition was “inactive”. `CCc1ccc(NC(=O)Cc2ccc(OC)cc2)cc1` was tested, and the percent span inhibition was “inactive”. `O=C1NCCN1C(=O)N(c1ccccc1)c1ccccc1` was tested, and the percent span inhibition was “inactive”. In the case of `COc1ccc(OCCNC(=O)c2ccccc2OCC(=O)N2CCCCC2)cc1`, the percent span inhibition is reported as “inactive”. `O=C1N/C(=C/c2cccn2-c2ccccc2)C(=O)N1Cc1ccc(F)cc1` was tested, and the percent span inhibition was “inactive”. For `CCN1C(=O)/C(=C\C=C2/C=CC=CN2CC)SC1=S`, the percent span inhibition was “inactive”. For `O=C1C(Cl)=C(Nc2ccccc2O)C(=O)N1c1ccccc1`, the percent span inhibition was “inactive”. For `COc1ccccc1NC1=C(NC(C)=O)C(=O)c2ccccc2C1=O`, the percent span inhibition was “inactive”. In the case of `CCN(CC)c1ccc(NC(=O)COc2ccccc2C#N)cc1S(=O)(=O)Nc1ccccc1OC`, the percent span inhibition is reported as “inactive”. In the case of `COc1ccc(-c2noc(COc3ccc4c(c3)OCO4)n2)cc1OC`, the percent span inhibition is reported as “inactive”. `N/C(=N\N=C/c1ccc(Br)cc1)N/N=C\c1ccc(Br)cc1` was tested, and the percent span inhibition was “inactive”. For `CC(C)Cc1cc(-c2ccco2)c(C#N)c(N)n1`, the percent span inhibition was “inactive”. With `Fc1ccccc1/C=C1\CCCC2=C1NC(=S)NC2c1ccccc1F` (configuration not stated) the percent span inhibition was “inactive”. For `CC(=O)N1CCN(C(=O)c2ccc(-n3c(C)ccc3C)cc2)CC1`, the percent span inhibition was “inactive”. `O=C(c1cc2ccccc2oc1=O)N(c1ccccc1)C1C=CS(=O)(=O)C1` (configuration not stated) was tested, and the percent span inhibition was “inactive”. For `CN(C)c1ccc(C=C2C(=O)NC(=O)NC2=O)cc1[N+](=O)[O-]`, the percent span inhibition was “inactive”. With `c1ccc2c(N3CCOCC3)nc(N3CCOCC3)nc2c1` the percent span inhibition was “inactive”. `COc1ccc2oc(-c3ccccc3)c(C(=O)N3CCOCC3)c2c1` was tested, and the percent span inhibition was “inactive”. With `CCOC(=O)CSc1nnc(-c2cccc(Cl)c2)n1CC` the percent span inhibition was “inactive”. `Cc1noc(C)c1CN1C(=O)NC(Cc2ccccc2)(Cc2ccccc2)C1=O` was tested, and the percent span inhibition was “inactive”. `CCOC(=O)c1cccc(Nc2ncnc3ccccc23)c1` was tested, and the percent span inhibition was “inactive”. `Cc1ccc(/C=C/C(=O)c2ccccc(=O)c2O)cc1C` was tested, and the percent span inhibition was “inactive”. For `CCn1cc(C=C2C(=O)c3ccccc3C2=O)c2ccccc21`, the percent span inhibition was “inactive”. In the case of `Nc1ccc(C2=Nc3cccc4cccc(c34)N2)cc1`, the percent span inhibition is reported as “inactive”. With `CCN1CCN(c2cc(C)c3cc(NC(=S)N4CC(C)CC(C)C4)ccc3n2)CC1` (configuration not stated) the percent span inhibition was “inactive”. For `CN(C)c1ccc(Nc2nc(-c3cccnc3)cs2)cc1`, the percent span inhibition was “inactive”. For `COC(=O)CCC(=O)Nc1sc(Cc2ccccc2)c(C)c1C(N)=O`, the percent span inhibition was “inactive”. With `Cn1c(=O)c2c(nc(NCCO)n2CCc2ccccc2)n(C)c1=O` the percent span inhibition was “inactive”. In the case of `CC(=O)NC(=O)Nc1sc(=S)n(C)c1C`, the percent span inhibition is reported as “inactive”. `CCOc1ccc(C(=O)Nc2nnn(CC)n2)cc1` was tested, and the percent span inhibition was “inactive”. With `CC1Nc2ccccc2C(=O)N1NS(=O)(=O)c1ccccc1` (configuration not stated) the percent span inhibition was “inactive”. In the case of `O=C(C1=C(Nc2ccccc2)c2ccccc2S(=O)(=O)N1)c1ccccc1`, the percent span inhibition is reported as “inactive”. `COc1ccc(/C=C/C(=O)c2cc(Br)ccc(=O)c2O)cc1` was tested, and the percent span inhibition was “inactive”. With `Cc1[nH]nc(SCC(=O)NCc2ccc(F)cc2)c1[N+](=O)[O-]` the percent span inhibition was “inactive”. `CNc1ccc(Br)cc(C(=O)/C=C/c2cccc(OC)c2)c1=O` was tested, and the percent span inhibition was “inactive”. `Cc1cc(C)nc(/N=c2/ssnc2Cl)c1` was tested, and the percent span inhibition was “inactive”. In the case of `CS(=O)(=O)NN1C(=O)c2ccccc2NC1c1ccccc1` (configuration not stated), the percent span inhibition is reported as “inactive”. In the case of `CNc1nc2ccccc2n1/N=C/c1cccc(OC)c1OC`, the percent span inhibition is reported as “inactive”. With `CN(C)/C=C/C(=O)c1ccc(C(F)(F)F)cc1F` the percent span inhibition was “inactive”. In the case of `Cc1ccc(C(NC(=O)C(C)C)c2cc([N+](=O)[O-])c3cccnc3c2O)cc1` (configuration not stated), the percent span inhibition is reported as “inactive”. With `Cc1ccc2cc(C)c(Sc3nnnn3-c3ccccc3)nc2c1` the percent span inhibition was “inactive”. `CCN(CC)c1ccc(NC(=O)c2ccc(=O)[nH]c2)cc1S(=O)(=O)Nc1ccccc1OC` was tested, and the percent span inhibition was “inactive”. With `Cc1csc(SCCn2c(N3CCN(c4ccccc4)CC3)nc3c2c(=O)[nH]c(=O)n3C)n1` the percent span inhibition was “inactive”. `COc1ccc(NC(=O)Cc2c(F)cccc2Cl)c(OC)c1` was tested, and the percent span inhibition was “inactive”. With `CCC(=O)OCCNc1cc(Sc2nccn2C)c2nonc2c1[N+](=O)[O-]` the percent span inhibition was “inactive”. In the case of `CC(=O)OCCCNc1cc(Sc2nc3ccccc3s2)c2nonc2c1[N+](=O)[O-]`, the percent span inhibition is reported as “inactive”. `O=C(CCc1ccccc1)N1CCN(c2ccccn2)CC1` was tested, and the percent span inhibition was “inactive”. With `O=C(O)c1ccc(NS(=O)(=O)c2ccc3c(c2)C(=O)c2ccccc2C3=O)cc1` the percent span inhibition was “inactive”. For `CCC(CC)C(=O)Nc1cccc(SC)c1`, the percent span inhibition was “inactive”. With `CCC(=O)NC(c1ccc(C)cc1)c1cc([N+](=O)[O-])c2cccnc2c1O` (configuration not stated) the percent span inhibition was “inactive”. With `Cc1ccc(C(=O)C(C(=O)/C=C/c2ccccc2)=C2SCCCS2)cc1` the percent span inhibition was “inactive”. With `COc1ccc(CN(CC(=O)NC2CCCC2)C(=O)CCC(=O)Nc2cc(C)on2)cc1` the percent span inhibition was “inactive”. With `COc1ccc(C2=Nc3cccc4cccc(c34)N2)cc1` the percent span inhibition was “inactive”. With `COCCN=c1scc(-c2cccs2)n1/N=C/c1ccc(O)c(O)c1O` the percent span inhibition was “inactive”. In the case of `Cc1c(N2C(=O)c3ccc4c5c(ccc(c35)C2=O)CC4)c(=O)n(-c2ccccc2)n1C`, the percent span inhibition is reported as “inactive”. With `COc1ccccc1Oc1ccc2c(c1)C(=O)N(c1ccccc1)C2=O` the percent span inhibition was “inactive”. With `Cc1ccc2nc3c(cc(C(N)=S)c(=N)n3CCCOC(C)C)c(=O)n2c1` the percent span inhibition was “inactive”. With `CCOC(=O)C1CCN(C(=O)Nc2ccc3nc(-c4ccco4)c(-c4ccco4)nc3c2)CC1` the percent span inhibition was “inactive”. In the case of `OCCN1CCN(CCCc2c3c(cc4c2CCC4)CCC3)CC1`, the percent span inhibition is reported as “inactive”. `Cc1ccc(C(=O)N/N=C2/NC(=O)CC(C(=O)Nc3ccccc3)S2)cc1` (configuration not stated) was tested, and the percent span inhibition was “inactive”. `CNC(=O)c1sc(-c2ccccn2)nc1C` was tested, and the percent span inhibition was “inactive”. `CSc1ccccc1NC(=O)CN(C)CC(=O)Nc1ccc(N2CCOCC2)cc1` was tested, and the percent span inhibition was “inactive”. `O=C(NCCc1ccccc1)c1ccc2nc(-c3ccco3)c(-c3ccco3)nc2c1` was tested, and the percent span inhibition was “inactive”. In the case of `NC(=O)CSc1nnc(Cn2cnc3ccccc32)o1`, the percent span inhibition is reported as “inactive”. With `C=CCn1c(C)c(C(C)=O)c(N2CCOCC2)nc1=S` the percent span inhibition was “inactive”. For `Cc1cc(NC(=O)CCSc2ccccc2)ccc1Br`, the percent span inhibition was “inactive”. In the case of `Cc1occc1C(=O)NNC(=S)NCc1ccccc1`, the percent span inhibition is reported as “inactive”. For `COC(=O)Cc1ccc(NC(=S)N2CCN(c3cccc(O)c3)CC2)cc1`, the percent span inhibition was “inactive”. `Cc1cc(-c2csc(N)n2)c(C)n1CCc1ccccc1` was tested, and the percent span inhibition was “inactive”. With `CCNCc1cc(Br)c(OCC(=O)Nc2ccccc2)c(OC)c1` the percent span inhibition was “inactive”. For `CC(C(=O)Nc1ccc([N+](=O)[O-])cc1)N1CCN(C/C=C/c2ccccc2)CC1` (configuration not stated), the percent span inhibition was “inactive”. For `CN=c1scc(C)n1/N=C/c1ccc(O)c(O)c1O`, the percent span inhibition was “inactive”. `Cc1cc(C)cc(NS(=O)(=O)c2ccc3c(c2)c(=O)n(C)c(=O)n3C)c1` was tested, and the percent span inhibition was “inactive”. In the case of `CCN(CC)c1ccc(-c2nn3c(-c4n[nH]c5c4CCC5)nnc3s2)cc1`, the percent span inhibition is reported as “inactive”. For `C#CCn1cc(C=C2C(=O)c3ccccc3C2=O)c2ccccc21`, the percent span inhibition was “inactive”. With `Cc1ccc(-n2c(CSc3nc(C)cc(C)n3)nnc2SCC(=O)NCc2ccco2)cc1` the percent span inhibition was “inactive”. With `COc1ccc(CN(C)CC(=O)NC(C)c2ccccc2)c(OC)c1` (configuration not stated) the percent span inhibition was “inactive”. For `Cc1cc(C)c2c(N)c3cccc(C)c3nc2n1`, the percent span inhibition was “inactive”. In the case of `CC(C)(C)C(=O)NC(NC(=S)Nc1ccc(S(N)(=O)=O)cc1)C(Cl)(Cl)Cl` (configuration not stated), the percent span inhibition is reported as “inactive”. `Cc1ccc(-c2ccc(CCC(=O)O)n2NC(=O)c2cccs2)cc1` was tested, and the percent span inhibition was “inactive”. For `CN(CCc1ccccn1)C(=O)CCC1CCCN(C(=O)NC2CCCCC2)C1` (configuration not stated), the percent span inhibition was “inactive”. `CCOC(=O)c1ccc(NC(=O)CSCCC(=O)O)cc1` was tested, and the percent span inhibition was “inactive”. With `COc1ccc(N2C(=O)C(Cl)=C(Nc3c(C)n(C)n(-c4ccccc4)c3=O)C2=O)cc1` the percent span inhibition was “inactive”. In the case of `Clc1nc(NCc2cccnc2)nc(N2CCOCC2)n1`, the percent span inhibition is reported as “inactive”. With `Cc1c(NC2=C(Cl)C(=O)N(c3ccccc3Cl)C2=O)c(=O)n(-c2ccccc2)n1C` the percent span inhibition was “inactive”. In the case of `CCc1cccc(CC)c1NC(=S)N1CCn2cccc2C1c1cccnc1` (configuration not stated), the percent span inhibition is reported as “inactive”. With `Oc1ccc(C=NCC2COc3ccccc3O2)cc1` (configuration not stated) the percent span inhibition was “inactive”. `CCOc1ccc(-n2cc(-c3ccc(OC)c(OC)c3)[nH]c2=S)cc1` was tested, and the percent span inhibition was “inactive”. In the case of `COc1ccc(C2CN(C)CC2C(=O)c2ccc(F)cc2)cc1Cl` (configuration not stated), the percent span inhibition is reported as “inactive”. In the case of `CS(=O)(=O)NN1C(=O)c2ccccc2NC1c1cccs1` (configuration not stated), the percent span inhibition is reported as “inactive”. With `CCn1c(C)c(/C=N/Nc2nc3ccccc3s2)c2ccccc21` the percent span inhibition was “inactive”. `NNC(=O)COc1ccccc1F` was tested, and the percent span inhibition was “inactive”. `Fc1cccc(Nc2nc(-c3ccncc3)nc3ccccc23)c1` was tested, and the percent span inhibition was “inactive”. `CN1CCS/C1=C/C=C1/SC(=S)N(Cc2ccccc2)C1=O` was tested, and the percent span inhibition was “inactive”.
